This is an account of results in US11332438B2, “Creatine prodrugs, compositions and methods of use thereof” (Ultragenyx Pharmaceutical Inc., priority 2017, dated 2022).

Data set [1] can be described thus: Plasma stability, human plasma. In kind it is in vitro ADME. The note with it: 37 °C, read-out: Plasma Stability Human t1/2. The method, then: (§1) The stabilities of creatine prodrugs can be evaluated in one or more in vitro systems using a variety of preparations following methods known in the art. Experimental conditions useful for the in vitro studies are described in Table 1. Prodrug is added to each preparation in triplicate. […]
(§2) Protocol for plasma stability for early screen macrocycles (Method A):
(§3) Frozen plasma was thawed by placing at 37° C. quickly and centrifuged at 3,000 rpm for 8 minutes to remove clots. Then the supernatant was pipetted and pooled as the plasma to be used in the experiment. The plasma was placed on ice until used. The test compounds and reference compounds spiking solution was prepared as a 2.5 mM test compounds spiking solution A: Add 20 μL of 10 mM test compounds stock solution to 60 μL DMSO. 0.1 mM Spiking solution B was prepared: Add 40 μL of spiking solution A to 960 μL of […] Sodium phosphate buffer with 0.5% BSA. […] For 0-min, 400 μL of ACN containing IS was added to the wells of 0-min plate and then 90 μL of plasma was added. […] 50 μL of the supernatant was transferred from each well into a 96-well sample plate containing 120 μL of ultra pure water (Millipore, ZMQS50F01) and analyzed by LC/MS.
(§4) Protocol for plasma stability (Method B):
(§5) The frozen plasma was thawed in a 37° C. water bath and then, if needed, adjusted to pH=7.4 then preheated in a 37° C. incubator. The test article was dissolved in 10% DMSO/water and spiked into plasma pre-plated into 96 well plates at a final concentration of 1 μM. Discrete incubations were performed at 37° C. and included 5 time points: t=0, 2, 5, 15, and 30 min. Samples were then crashed with 4× volume, ice cold 20% water/80% acetonitrile and spun at 4000 g for 10 mins. The supernatant was dried down and reconstituted with water and analyzed by LC-MS/MS. The half life in minute was calculated.

A short description of data set [2]: Plasma stability, mouse plasma. In kind it is in vitro ADME. Conditions: 37 °C, read-out: Plasma Stability Mouse t1/2. The method, then:
as §1, §2, §3, §4, §5

Data set [3] can be described thus: Liver microsome stability, human. The class given is in vitro ADME. Conditions: liver microsomes, read-out: Microsome Stability Human t1/2. The method, then:
as §1
(§6) Protocol for Microsomal Stability:
(§7) For reference compound, a 500 μM spiking solution was prepared: add 10 μL of 10 mM DMSO stock solution into 190 μL ACN. […] For test compound, a 5 mM spiking solution was prepared: add 10 μL of 10 mM DMSO stock solution into 10 μL ACN. […] NADPH stock solution (6 mM) was prepared by dissolving NADPH into buffer 0.1 M Potassium Phosphate buffer, 1.0 mM EDTA, pH 7.4. […] For 0-min, 135 μL of ACN containing IS was added to the wells of 0-min plate and then 15 μL of NADPH stock solution (6 mM) was added. 15 μL of NADPH stock solution (6 mM) was added to the samples designated as 0-, 5-, 10-, 20-, 30-min, 60-min; 15 μL of buffer 0.1 M Potassium Phosphate buffer, 1.0 mM EDTA, pH 7.4, was added to the samples designated as 60-min without NADPH. At 5-min, 10-min, 20-min, and 30-min, 60-min 135 μL of ACN containing IS was added to the wells of corresponding plates, respectively, to stop the reaction. […] 50 μL of the supernatant from each well was transferred into a 96-well sample plate containing 50 μL of ultra pure water (Millipore, ZMQS50FOI) and analyzed by LC/MS.

The nature of data set [4]: Liver microsome stability, mouse. The class given is in vitro ADME. The note with it: liver microsomes, read-out: Microsome Stability Mouse t1/2. The method, then:
as §1, §6, §7

Data set [5] in a line: Chemical stability in phosphate buffered saline (PBS). In kind it is physicochemical. The note with it: 50 μM prodrug. The method, then: (§8) Chemical stability of creatine prodrugs in phosphate buffered saline (PBS), simulated intestinal fluid (SIF) without pancreatin, simulated gastric fluid (SGF) without pepsin were determined by LC-UV, LC-CAD, LC-UV-CAD or LC-MS/MS as appropriate. Creatine prodrugs of the present disclosure (50 μM) were incubated at 37° C. according to described protocols and prodrug levels were compared between t=0, t=15, t=60, and t=120 mins by peak area ratio to determine the percentage remained at t=120 mins (2 h).
(§9) Protocol for PBS, SIF and SGF stability for screening:
(§10) Prodrugs (50 μM) were incubated in PBS, FaSSIF (Biorelevant) or FaSSGF (Biorelevant) at 37° C.

Data set [6] can be described thus: Chemical stability in simulated gastric fluid (SGF) without pepsin. Conditions: 50 μM prodrug. In kind it is physicochemical. The method, then: as §8, §9, §10

In the case of `[2H]C([2H])([2H])N(CC(=O)OCC)/C(=N\C(=O)OC(C)(C)C)NC(=O)CCCCCCCCCC` [Compound 47], the half-life was 169 min in data set [1] (Table 2A) and less than 5 min in data set [2] (Table 2A). Further, the half-life at 10 μM in data set [3] (pH 7.4, Table 2A) amounted to 16 min; in data set [4] (pH 7.4, Table 2A) it was 5 min. Besides, in data set [5] (Table 2A), the “Chemical Stability PBS % T0 at 2 hours at 37 °C.” value (shortened to “Chemical Stability PBS % T0”) amounted to 55%. In data set [6] (Table 2A), the “Chemical Stability SGF, no enzyme % T0 at 2 hours at 37 °C.” value (“Chemical Stability SGF, no enzyme % T0” for short) is 32%.

As for `[2H]C([2H])([2H])N1CC(=O)N=C1NC(=O)CCCCCCCCCC` [Compound 49], the half-life in data set [1] (Table 2A) is more than 180 min; in data set [2] (Table 2A) it was 47 min. Moreover, the half-life at 10 μM in data set [3] (pH 7.4, Table 2A) is 24 min; in data set [4] (pH 7.4, Table 2A) it was less than 5 min. Also, in data set [5] (Table 2A), the “Chemical Stability PBS % T0” value turned out to be 87%. Besides, the “Chemical Stability SGF, no enzyme % T0” value in data set [6] (Table 2A) was 62%.

Turning to `[2H]C([2H])([2H])N(CC(=O)[O-])C(=N)NC(=O)CCCCCCCCCCCO.[Na+]` [Compound 56], the half-life in data set [1] (Table 2B) and in data set [2] (Table 2B) was more than 180 min each time. The half-life at 10 μM was more than 90 min in data set [3] (pH 7.4, Table 2B) and more than 90 min in data set [4] (pH 7.4, Table 2B). Moreover, the “Chemical Stability PBS % T0” value in data set [5] (Table 2B) came to 58%. In addition, the “Chemical Stability SGF, no enzyme % T0” value in data set [6] (Table 2B) is given as 81%.

For the compound `[2H]C([2H])([2H])N(CC(=O)[O-])C(=N)NC(=O)CCCCCCCCCC(C)O.[Na+]` (stereo not drawn) [Compound 57], the half-life in data set [1] (Table 2B) and in data set [2] (Table 2B) was more than 180 min each time. For the same compound, the half-life at 10 μM was more than 90 min in data set [3] (pH 7.4, Table 2B) and more than 90 min in data set [4] (pH 7.4, Table 2B). Also, the “Chemical Stability PBS % T0” value in data set [5] (Table 2B) is given as 78%. For the same compound, the “Chemical Stability SGF, no enzyme % T0” value in data set [6] (Table 2B) is 89%.

In the case of `[2H]C([2H])([2H])N(CC(=O)OC(C)(C)C(C)C)C(=N)NC(=O)CCCCCC` [Compound 60], the half-life in data set [1] (Table 2B) and in data set [2] (Table 2B) was more than 180 min in each case. Also, the half-life at 10 μM in data set [3] (pH 7.4, Table 2B) is less than 5 min; in data set [4] (pH 7.4, Table 2B), less than 5 min. For the same compound, the “Chemical Stability PBS % T0” value in data set [5] (Table 2B) is given as 101%. The “Chemical Stability SGF, no enzyme % T0” value in data set [6] (Table 2B) is 99%.

Consider `[2H]C([2H])([2H])N(CC(=O)OC(C)(C)C(C)(C)O)C(=N)NC(=O)CCCCCCCCCC` [Compound 61], for which the half-life in data set [1] (Table 2B) and in data set [2] (Table 2B) was less than 5 min each time. For the same compound, the half-life at 10 μM is less than 5 min in data set [3] (pH 7.4, Table 2B) and less than 5 min in data set [4] (pH 7.4, Table 2B). Moreover, the “Chemical Stability PBS % T0” value in data set [5] (Table 2B) amounted to 106%. The “Chemical Stability SGF, no enzyme % T0” value in data set [6] (Table 2B) was 99%.

Consider `[2H]C([2H])([2H])N(CC(=O)OC(C)(C)C(C)C)C(=N)NC(=O)CCCCCCCCCC` [Compound 62], for which the figures for the half-life in data set [1] (Table 2B) and in data set [2] (Table 2B) were more than 180 min and 76 min, respectively. Further, the half-life at 10 μM is less than 5 min in data set [3] (pH 7.4, Table 2B) and less than 5 min in data set [4] (pH 7.4, Table 2B). Further, the “Chemical Stability PBS % T0” value in data set [5] (Table 2B) is 62%. Moreover, in data set [6] (Table 2B), the “Chemical Stability SGF, no enzyme % T0” value is recorded as 103%.

Take `[2H]C([2H])([2H])N(CC(=O)OC(C)(C)C(C)(C)O)C(=N)NC(=O)CCCCCC` [Compound 63]: the half-life in data set [1] (Table 2B) and in data set [2] (Table 2B) was less than 5 min throughout. The half-life at 10 μM in data set [3] (pH 7.4, Table 2B) is less than 5 min; in data set [4] (pH 7.4, Table 2B), less than 5 min. Also, the “Chemical Stability PBS % T0” value in data set [5] (Table 2B) was 58%. Besides, the “Chemical Stability SGF, no enzyme % T0” value in data set [6] (Table 2B) is 101%.
